Patent US20150133426A1, “SUBSTITUTED PYRROLOPYRIMIDINES” (BAYER PHARMA AKTIENGESELLSCHAFT, priority 2012, published 2015)
Structures can show the parent of a compound that is named as a salt.

What follows are molecules tested against T1, human full-length MKNK1 (Homo sapiens, UniProt Q9BUB5, T385D) (assay: MKNK1 kinase high ATP assay (TR-FRET)). Conditions: high ATP (2 mM), 15 min preincubation with enzyme, GST-MKNK1 (T344D).
T1 construct: purchased Carna Biosciences 02-145; host or cells: insect cells, baculovirus expression system
T1 sequence (Q9BUB5 1-424 isoform Q9BUB5-2 T344D): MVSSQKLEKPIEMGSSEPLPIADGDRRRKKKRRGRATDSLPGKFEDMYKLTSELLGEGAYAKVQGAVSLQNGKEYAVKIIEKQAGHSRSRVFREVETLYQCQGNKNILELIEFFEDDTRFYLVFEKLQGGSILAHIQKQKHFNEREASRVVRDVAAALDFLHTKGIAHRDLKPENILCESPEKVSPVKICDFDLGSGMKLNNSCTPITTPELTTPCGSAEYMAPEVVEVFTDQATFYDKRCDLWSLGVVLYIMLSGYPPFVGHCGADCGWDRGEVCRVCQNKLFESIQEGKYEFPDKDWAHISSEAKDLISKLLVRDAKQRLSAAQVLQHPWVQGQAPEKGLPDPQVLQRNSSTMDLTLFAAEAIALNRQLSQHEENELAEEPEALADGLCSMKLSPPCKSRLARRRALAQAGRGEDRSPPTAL
Assay type: biochemical
Method: MKNK1-inhibitory activity at high ATP of compounds of the present invention after their preincubation with MKNK1 was quantified employing the TR-FRET-based MKNK1 high ATP assay as described in the following paragraphs.
A recombinant fusion protein of Glutathione-S-Transferase (GST, N-terminally) and human full-length MKNK1 (amino acids 1-424 and T344D of accession number BAA 19885.1), expressed in insect cells using baculovirus expression system and purified via glutathione sepharose affinity chromatography, was purchased from Carna Biosciences (product no 02-145) and used as enzyme. As substrate for the kinase reaction the biotinylated peptide biotin-Ahx-IKKRKLTRRKSLKG (C-terminus in amide form) was used, which can be purchased e.g. from the company Biosyntan (Berlin-Buch, Germany).
For the assay 50 nL of a 100fold concentrated solution of the test compound in DMSO was pipetted into a black low volume 384well microtiter plate (Greiner Bio-One, Frickenhausen, Germany), 2 μL of a solution of MKNK1 in aqueous assay buffer [50 mM HEPES pH 7.5, 5 mM MgCl2, 1.0 mM dithiothreitol, 0.005% (v/v) Nonidet-P40 (Sigma)] was added and the mixture was incubated for 15 min at 22° C. to allow pre-binding of the test compounds to the enzyme before the start of the kinase reaction. Then the kinase reaction was started by the addition of 3 μL of a solution of adenosine-tri-phosphate (ATP, 3.3 mM=>final conc. in the 5 μL assay volume is 2 mM) and substrate (0.1 μM=>final conc. in the 5 μL assay volume is 0.06 μM) in assay buffer and the resulting mixture was incubated for a reaction time of 30 min at 22° C. The concentration of MKNK1 was adjusted depending of the activity of the enzyme lot and was chosen appropriate to have the assay in the linear range, typical concentrations were in the range of 0.003 μg/mL. The reaction was stopped by the addition of 5 μL of a solution of TR-FRET detection reagents (5 nM streptavidine-XL665 [Cisbio Bioassays, Codolet, France] and 1 nM anti-ribosomal protein […] (pSer236)-antibody from Invitrogen [#44921G] and 1 nM LANCE EU-W1024 labeled ProteinG [Perkin-Elmer, product no. AD0071]) in an aqueous EDTA-solution (100 mM EDTA, 0.1% (w/v) bovine serum albumin in 50 mM HEPES pH 7.5).
The resulting mixture was incubated for 1 h at 22° C. to allow the formation of complex between the phosphorylated biotinylated peptide and the detection reagents. Subsequently the amount of phosphorylated substrate was evaluated by measurement of the resonance energy transfer from the Eu-chelate to the streptavidine-XL. Therefore, the fluorescence emissions at 620 nm and 665 nm after excitation at 350 nm were measured in a TR-FRET reader, e.g. a Rubystar (BMG Labtechnologies, Offenburg, Germany) or a Viewlux (Perkin-Elmer). The ratio of the emissions at 665 nm and at […] was taken as the measure for the amount of phosphorylated substrate. The data were normalised (enzyme reaction without inhibitor=0% inhibition, all other assay components but no enzyme=100% inhibition).

Going from `CC(C)Oc1ccc(Cl)cc1Nc1ncnc2[nH]c3c(c12)CC(C(=O)O)CC3` (racemic) [Example 234, (RS)-4-{[5-Chloro-2-(propan-2-yloxy)phenyl]amino}-6,7,8,9-tetrahydro-5H-pyrimido[4,5-b]indole-6-carboxylic acid] to `CCOC(=O)C1CCc2[nH]c3ncnc(Nc4ccc(F)cc4OC(C)C)c3c2C1` (racemic) [Example 174, (RS)-Ethyl 4-{[4-fluoro-2-(propan-2-yloxy)phenyl]amino}-6,7,8,9-tetrahydro-5H-pyrimido[4,5-b]indole-6-carboxylate], the IC50 rises from 0.288 µM to 0.706 µM (2.5-fold). The first is the more potent here.

Compared with `O=C(O)C1CCc2[nH]c3ncnc(Nc4cc5[nH]c(=O)[nH]c5cc4Cl)c3c2C1` (racemic) [Example 237, (RS)-4-[(6-Chloro-2-oxo-2,3-dihydro-1H-benzimidazol-5-yl)amino]-6,7,8,9-tetrahydro-5H-pyrimido[4,5-b]indole-6-carboxylic acid], `O=C(O)C1CCc2[nH]c3ncnc(Nc4ccc(Cl)c(Cl)c4)c3c2C1` (racemic) [Example 233, (RS)-4-[(3,4-Dichlorophenyl)amino]-6,7,8,9-tetrahydro-5H-pyrimido[4,5-b]indole-6-carboxylic acid] is 83-fold lower in IC50: 12.3 µM for the first, 0.149 µM for the second. The second is the more potent here.

Going from `CS(=O)(=O)CCCNC(=O)C1CCc2[nH]c3ncnc(Nc4cccc(-n5cnnn5)c4)c3c2C1` (racemic) [Example 47, (RS)—N-[3-(Methylsulfonyl)propyl]-4-{[3-(1H-tetrazol-1-yl)phenyl]amino}-6,7,8,9-tetrahydro-5H-pyrimido[4,5-b]indole-6-carboxamide] to `CS(=O)(=O)CCCNC(=O)C1CCc2[nH]c3ncnc(Nc4ccc5[nH]c(=O)sc5c4)c3c2C1` (racemic) [Example 29, (RS)—N-[3-(Methylsulfonyl)propyl]-4-[(2-oxo-2,3-dihydro-1,3-benzothiazol-6-yl)amino]-6,7,8,9-tetrahydro-5H-pyrimido[4,5-b]indole-6-carboxamide], the IC50 falls from 1.31 µM to 0.014 µM (94-fold). The second is the more potent here.

Compared with `CCNC(=O)C1CCc2[nH]c3ncnc(N4CCc5ccccc54)c3c2C1` (racemic) [Example 207, (RS)-4-(2,3-Dihydro-1H-indol-1-yl)-N-ethyl-6,7,8,9-tetrahydro-5H-pyrimido[4,5-b]indole-6-carboxamide], `CNC(=O)C1CCc2[nH]c3ncnc(N4CCc5ccccc54)c3c2C1` (racemic) [Example 212, (RS)-4-(2,3-Dihydro-1H-indol-1-yl)-N-methyl-6,7,8,9-tetrahydro-5H-pyrimido[4,5-b]indole-6-carboxamide] is 3.5-fold lower in IC50: 3.14 µM for the first, 0.91 µM for the second.

Going from `Cn1c2c(c3c(Nc4ccc5[nH]ncc5c4)ncnc31)CC(C(=O)NCCCS(C)(=O)=O)CC2` (racemic) [Example 26, (RS)-4-(1H-Indazol-5-ylamino)-9-methyl-N-[3-(methylsulfonyl)propyl]-6,7,8,9-tetrahydro-5H-pyrimido[4,5-b]indole-6-carboxamide] to `COP(C)(=O)c1ccc(Nc2ncnc3[nH]c4c(c23)CC(C(=O)NCCCS(C)(=O)=O)CC4)cc1` (racemic) [Example 64, (RS)-Methyl methyl{4-[(6-{[3-(methylsulfonyl)propyl]carbamoyl}-6,7,8,9-tetrahydro-5H-pyrimido[4,5-b]indol-4-yl)amino]phenyl}phosphinate], the IC50 rises from 1.74 µM to 19.7 µM (11-fold).

Going from `COc1ccc(C(F)(F)F)cc1Nc1ncnc2[nH]c3c(c12)CC(C(=O)NCCCS(C)(=O)=O)CC3` (racemic) [Example 67, (RS)-4-{[2-Methoxy-5-(trifluoromethyl)phenyl]amino}-N-[3-(methylsulfonyl)propyl]-6,7,8,9-tetrahydro-5H-pyrimido[4,5-b]indole-6-carboxamide] to `CS(=O)(=O)CCCNC(=O)C1CCc2[nH]c3ncnc(Nc4ccc(F)c(OC(F)(F)F)c4)c3c2C1` (racemic) [Example 43, (RS)-4-{[4-Fluoro-3-(trifluoromethoxy)phenyl]amino}-N-[3-(methylsulfonyl)propyl]-6,7,8,9-tetrahydro-5H-pyrimido[4,5-b]indole-6-carboxamide], the IC50 rises from 0.028 µM to 0.782 µM (28-fold).

`COc1cc(Cl)c(Cl)cc1Nc1ncnc2[nH]c3c(c12)CC(C(=O)Nc1ccccc1)CC3` (racemic) [Example 22, (RS)-4-[(4,5-Dichloro-2-methoxyphenyl)amino]-N-phenyl-6,7,8,9-tetrahydro-5H-pyrimido[4,5-b]indole-6-carboxamide] and `O=C(Nc1ccccc1)C1CCc2[nH]c3ncnc(Nc4ccccc4N4CCOCC4)c3c2C1` (racemic) [Example 205, (RS)-4-{[2-(Morpholin-4-yl)phenyl]amino}-N-phenyl-6,7,8,9-tetrahydro-5H-pyrimido[4,5-b]indole-6-carboxamide] are within 1.5-fold of each other in IC50: 0.313 µM for the first, 0.242 µM for the second.

Going from `CS(=O)(=O)CCCNC(=O)C1CCc2[nH]c3ncnc(N4CCc5ccccc54)c3c2C1` (racemic) [Example 168, (RS)-4-(2,3-Dihydro-1H-indol-1-yl)-N-[3-(methylsulfonyl)propyl]-6,7,8,9-tetrahydro-5H-pyrimido[4,5-b]indole-6-carboxamide] to `CC(C)COc1ccccc1Nc1ncnc2[nH]c3c(c12)CC(C(=O)NCCCS(C)(=O)=O)CC3` (racemic) [Example 153, (RS)-4-{[2-(2-Methylpropoxy)phenyl]amino}-N-[3-(methylsulfonyl)propyl]-6,7,8,9-tetrahydro-5H-pyrimido[4,5-b]indole-6-carboxamide], the IC50 falls from 0.803 µM to 0.193 µM (4.2-fold).

First: O=C(C1CCc2[nH]c3ncnc(Nc4ccc5[nH]ncc5c4)c3c2C1)N1CC(F)(F)C1 (racemic) [Example 17, (RS)-(3,3-Difluoroazetidin-1-yl)[4-(1H-indazol-5-ylamino)-6,7,8,9-tetrahydro-5H-pyrimido[4,5-b]indol-6-yl]methanone]
Second: CC(C)NC(=O)C1CCc2[nH]c3ncnc(Nc4ccc5[nH]ncc5c4)c3c2C1 (racemic) [Example 227, (RS)-4-(1H-Indazol-5-ylamino)-N-(propan-2-yl)-6,7,8,9-tetrahydro-5H-pyrimido[4,5-b]indole-6-carboxamide]
The IC50 of the first is 1.9-fold higher: 0.046 µM for the first, 0.024 µM for the second. The second is the more potent here.

Going from `CCOC(=O)C1CCc2[nH]c3ncnc(Nc4ccc5[nH]ncc5c4)c3c2C1` (racemic) [Example 5, (RS)-Ethyl 4-(1H-indazol-5-ylamino)-6,7,8,9-tetrahydro-5H-pyrimido[4,5-b]indole-6-carboxylate] to `CCOC(=O)C1CCc2[nH]c3ncnc(Nc4cc(F)ccc4OC)c3c2C1` (racemic) [Example 171, (RS)-Ethyl 4-[(5-fluoro-2-methoxyphenyl)amino]-6,7,8,9-tetrahydro-5H-pyrimido[4,5-b]indole-6-carboxylate], the IC50 rises from 0.018 µM to 6.09 µM (340-fold). The first is the more potent here.

Going from `Nc1ccc2c(c1)CCN2c1ncnc2[nH]c3c(c12)CCCC3` [Example 113] to `c1ccc(OC2CCCC2)c(Nc2ncnc3[nH]c4c(c23)CCCC4)c1` [Example 116], the IC50 rises from 0.683 µM to no less than 20 µM. The first is the more potent here.

First: CC(C)Oc1ccc(Nc2ncnc3[nH]c4c(c23)CC(C(=O)NCCCS(C)(=O)=O)CC4)cc1 (racemic) [Example 35, (RS)—N-[3-(Methylsulfonyl)propyl]-4-{[4-(propan-2-yloxy)phenyl]amino}-6,7,8,9-tetrahydro-5H-pyrimido[4,5-b]indole-6-carboxamide]
Second: CN1CCN(C(=O)C2CCc3[nH]c4ncnc(Nc5ccc6[nH]c(=O)sc6c5)c4c3C2)CC1 (racemic) [Example 222, (RS)-6-({6-[(4-Methylpiperazin-1-yl)carbonyl]-6,7,8,9-tetrahydro-5H-pyrimido[4,5-b]indol-4-yl}amino)-1,3-benzothiazol-2(3H)-one]
The IC50 of the first is 390-fold higher: 9.66 µM for the first, 0.025 µM for the second.

Compared with `COc1cc2[nH]ncc2cc1Nc1ncnc2[nH]c3c(c12)CC(C(=O)O)CC3` (racemic) [Example 184, (RS)-4-[(6-Methoxy-1H-indazol-5-yl)amino]-6,7,8,9-tetrahydro-5H-pyrimido[4,5-b]indole-6-carboxylic acid hydrochloride (1:1)], `COCC1(OC)CCc2[nH]c3ncnc(Nc4cc5cn[nH]c5cc4F)c3c2C1` (racemic) [Example 139] is 7.6-fold higher in IC50: 0.026 µM for the first, 0.197 µM for the second. The first is the more potent here.
